In patent US20100311729A1, “Substituted imidazopyridazines and pyrrolopyrimidines as lipid kinase inhibitors” (priority 2007, published 2010) one finds IC50 data, which are given here for 24 compounds.

What all share (format): biochemical
Test [1] deals with T1, PI3K alfa (Homo sapiens, UniProt P42336).
T1 construct: for the p110-a subunit (with a deletion of the first 20 amino acids); His tag (C); made in house; host or cells: baculovirus; Tn5 (Trichoplusia ni) or TiniPro insect cells
The experiment in a line: PI3 kinase assay (Kinase-Glo luminescence), PI3K alfa. How it is done: (§1) In a more preferred assay, the kinase reaction is performed in a final volume of 10 μL per well of a low volume non binding CORNING, 384 well black plate (Cat. No. #3676). The final concentrations of ATP and phosphatidyl inositol (PI) in the assay are 1 μM and 10 μg/mL respectively. The reaction is started by the addition of ATP.
(§2) The components of the assay are added per well as follows:
(§3) 50 nL test compounds in 90% DMSO per well, in columns 1-20, 8 concentrations (1/3 and 1/3.33 serial dilution step) in single. • Low control: 50 nL of 90% DMSO in half the wells of columns 23-24 (0.45% in final). • High control: 50 nL of reference compound (e.g. compound of Example 7 in WO 2006/122806, incorporated by reference hereinin that regard) in the other half of columns 23-24 (2.5 μM in final). • Standard: 50 nL of reference compound as just mentioned diluted as the test compounds in columns 21-22 • 20 mL ‘buffer’ are prepared per assay: • 200 μL of 1M TRIS HCl pH7.5 (10 mM in final) • 60 μL of 1M MgCl2 (3 mM in final) • 500 μL of 2M NaCl (50 mM in final) • 100 μL of 10% CHAPS (0.05% in final) • 200 μL of 100 mM DTT (1 mM in final) • 18.94 mL of nanopure water • 10 mL ‘PI’ are prepared per assay: • 200 μL of 1 mg/ml L-alpha-Phosphatidylinositol (Liver Bovine, Avanti Polar Lipids Cat. No. 840042C MW=909.12) prepared in 3% OctylGlucoside (10 μg/ml in final) • 9.8 mL of ‘buffer’ • 10 mL ‘ATP’ are prepared per assay: • 6.7 μL of 3 mM stock of ATP giving a final concentration of 1 μM per well • 10 mL of ‘buffer’ • 2.5 mL of each PI3K construct are prepared per assay in ‘PI’ with the following final concentration : • 10 nM PI3K alfa B-1075 • 25 nM beta BV-949 • 10 nM delta BV-1060 • 150 nM gamma BV-950 • 5 μL of ‘PI/PI3K’ are added per well. • 5 μl ‘ATP’ are added per well to start the reaction. • The plates are then incubated at room temperature for 60 minutes (alfa, beta, delta) or 120 minutes (gamma). • The reaction is terminated by the addition of 10 μL Kinase-Glo (Promega Cat. No. #6714). • The assay plates are read after 10 minutes in Synergy 2 reader (BioTek, Vermont USA) with an integration time of 100 milliseconds and sensitivity set to 191. • Output : The High control is around 60'000 counts and the Low control is 30'000 or lower • This luminescence assay gives a useful Z′ ratio between 0.4 and 0.7
(§4) […] is determined by a four parameter curve fitting routine that comes aloneg with “excel fit”. A 4 Parameter logistic equation is used to calculate IC50 values (IDBS XLfit) of the percentage inhibition of each compound at 8 concentrations (usually 10, 3.0, 1.0, 0.3, 0.1, 0.030, 0.010 and […]). Alternatively, IC50 values are calculated using idbsXLfit model 204, which is a 4 parameter logistic model.
(§5) Testing with the following kinases in the test system mentioned above, with the kinases given in the following tables, the following IC 50 data can be obtained: […]
Background: In Kinase-Glo more light means more ATP remaining.

Test [2] has as its target T2, PI3K delta (Homo sapiens, UniProt O00329).
T2 construct: for the full-length p110-d subunit are generated and fused by overlapping PCR; His tag (C); made in house; host or cells: baculovirus; Tn5 (Trichoplusia ni) or TiniPro insect cells
Description: PI3 kinase assay (Kinase-Glo luminescence), PI3K delta. The settings on record: Enzymatic Data; read-out: PI3K delta IC50 [umol]. How it is done:
as §1, §2, §3, §4, §5

In test [3] the target is T3, PI3K beta (Homo sapiens, UniProt P42338).
T3 construct: for the full-length p110-b subunit are generated and fused by overlapping PCR; His tag (C); made in house; host or cells: baculovirus; Tn5 (Trichoplusia ni) or TiniPro insect cells
T3 sequence (P42338 with tags, fused parts or gaps limits assumed): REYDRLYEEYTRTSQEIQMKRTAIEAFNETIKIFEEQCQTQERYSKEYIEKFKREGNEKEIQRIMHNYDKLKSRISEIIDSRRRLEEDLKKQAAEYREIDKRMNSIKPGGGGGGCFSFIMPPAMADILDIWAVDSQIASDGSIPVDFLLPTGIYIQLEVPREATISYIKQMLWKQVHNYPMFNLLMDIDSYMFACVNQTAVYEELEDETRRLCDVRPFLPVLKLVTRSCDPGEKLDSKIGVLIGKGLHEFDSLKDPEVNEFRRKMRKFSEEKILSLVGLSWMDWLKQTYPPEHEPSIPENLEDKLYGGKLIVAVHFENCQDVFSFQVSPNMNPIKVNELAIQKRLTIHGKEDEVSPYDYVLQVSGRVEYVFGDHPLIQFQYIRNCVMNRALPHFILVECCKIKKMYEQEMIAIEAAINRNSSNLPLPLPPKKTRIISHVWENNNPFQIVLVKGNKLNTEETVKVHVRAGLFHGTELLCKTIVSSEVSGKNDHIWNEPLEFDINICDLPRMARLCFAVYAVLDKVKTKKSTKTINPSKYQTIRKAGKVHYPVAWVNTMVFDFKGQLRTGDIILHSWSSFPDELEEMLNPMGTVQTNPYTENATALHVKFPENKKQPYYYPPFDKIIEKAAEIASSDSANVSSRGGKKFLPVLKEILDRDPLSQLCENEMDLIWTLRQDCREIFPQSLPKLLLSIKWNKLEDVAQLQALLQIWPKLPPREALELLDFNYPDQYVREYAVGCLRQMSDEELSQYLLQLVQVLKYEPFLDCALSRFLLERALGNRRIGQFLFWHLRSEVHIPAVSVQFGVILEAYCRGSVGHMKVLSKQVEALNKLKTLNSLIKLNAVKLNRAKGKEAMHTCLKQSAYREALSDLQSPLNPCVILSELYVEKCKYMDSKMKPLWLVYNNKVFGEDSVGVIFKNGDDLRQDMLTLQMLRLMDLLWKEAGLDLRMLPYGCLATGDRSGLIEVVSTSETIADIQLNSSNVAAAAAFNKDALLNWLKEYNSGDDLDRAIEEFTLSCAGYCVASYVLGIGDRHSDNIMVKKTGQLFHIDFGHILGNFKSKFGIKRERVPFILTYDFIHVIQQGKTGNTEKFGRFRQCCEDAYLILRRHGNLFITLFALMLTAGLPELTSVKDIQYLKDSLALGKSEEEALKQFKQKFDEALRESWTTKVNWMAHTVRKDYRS
The experiment in a line: PI3 kinase assay (Kinase-Glo luminescence), PI3K beta. The settings on record: Enzymatic Data; read-out: PI3K beta IC50 [umol]. Here is the method: as §1, §2, §3, §4, §5

In test [4] the target is T4, PI3K gamma (Homo sapiens, UniProt P48736).
T4 construct: PI3Kγ BV-950 p110g(D144aa)-C-Term His Tag; His tag (C); made in house; host or cells: construct from the Roger Williams lab (MRC LMB) in pVL1393; baculovirus; Tn5 (Trichoplusia ni) or TiniPro insect cells
T4 sequence (P48736 144-1102 limits assumed): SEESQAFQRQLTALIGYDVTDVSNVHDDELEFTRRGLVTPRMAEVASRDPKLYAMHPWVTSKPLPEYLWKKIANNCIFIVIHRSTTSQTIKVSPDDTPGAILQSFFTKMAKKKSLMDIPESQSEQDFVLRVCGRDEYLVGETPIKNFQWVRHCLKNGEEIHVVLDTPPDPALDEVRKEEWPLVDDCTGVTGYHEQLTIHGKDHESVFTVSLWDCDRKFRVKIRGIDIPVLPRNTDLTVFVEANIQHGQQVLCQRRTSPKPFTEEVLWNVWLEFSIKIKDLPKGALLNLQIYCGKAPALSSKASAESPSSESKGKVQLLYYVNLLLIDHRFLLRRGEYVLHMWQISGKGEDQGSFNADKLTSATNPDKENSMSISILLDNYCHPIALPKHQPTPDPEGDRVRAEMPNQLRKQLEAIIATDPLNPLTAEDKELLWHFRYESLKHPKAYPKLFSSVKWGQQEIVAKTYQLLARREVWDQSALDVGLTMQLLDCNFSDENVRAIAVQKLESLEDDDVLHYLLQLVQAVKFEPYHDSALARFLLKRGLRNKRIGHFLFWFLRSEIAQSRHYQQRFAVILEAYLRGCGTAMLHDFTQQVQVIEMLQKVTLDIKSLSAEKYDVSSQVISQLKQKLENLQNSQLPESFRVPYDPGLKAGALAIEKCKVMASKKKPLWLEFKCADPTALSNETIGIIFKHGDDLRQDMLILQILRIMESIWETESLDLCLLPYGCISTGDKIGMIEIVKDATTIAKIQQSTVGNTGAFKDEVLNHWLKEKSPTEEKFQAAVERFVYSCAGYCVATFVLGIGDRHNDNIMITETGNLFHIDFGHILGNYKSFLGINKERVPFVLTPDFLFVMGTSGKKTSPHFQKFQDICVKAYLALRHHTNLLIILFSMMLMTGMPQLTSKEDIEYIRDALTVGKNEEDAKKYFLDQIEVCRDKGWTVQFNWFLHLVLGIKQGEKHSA
Description: PI3 kinase assay (Kinase-Glo luminescence), PI3K gamma. As to conditions: Enzymatic Data; read-out: PI3K gamma IC50 [umol]. How it is done: as §1, §2, §4

Setting [5] is: Enzymatic Data, read-out: PI3K alfa IC50 [umol].

Like-named read-outs stand apart in the source and are kept apart here.

T2 sequence (O00329 with tags, fused parts or gaps limits assumed): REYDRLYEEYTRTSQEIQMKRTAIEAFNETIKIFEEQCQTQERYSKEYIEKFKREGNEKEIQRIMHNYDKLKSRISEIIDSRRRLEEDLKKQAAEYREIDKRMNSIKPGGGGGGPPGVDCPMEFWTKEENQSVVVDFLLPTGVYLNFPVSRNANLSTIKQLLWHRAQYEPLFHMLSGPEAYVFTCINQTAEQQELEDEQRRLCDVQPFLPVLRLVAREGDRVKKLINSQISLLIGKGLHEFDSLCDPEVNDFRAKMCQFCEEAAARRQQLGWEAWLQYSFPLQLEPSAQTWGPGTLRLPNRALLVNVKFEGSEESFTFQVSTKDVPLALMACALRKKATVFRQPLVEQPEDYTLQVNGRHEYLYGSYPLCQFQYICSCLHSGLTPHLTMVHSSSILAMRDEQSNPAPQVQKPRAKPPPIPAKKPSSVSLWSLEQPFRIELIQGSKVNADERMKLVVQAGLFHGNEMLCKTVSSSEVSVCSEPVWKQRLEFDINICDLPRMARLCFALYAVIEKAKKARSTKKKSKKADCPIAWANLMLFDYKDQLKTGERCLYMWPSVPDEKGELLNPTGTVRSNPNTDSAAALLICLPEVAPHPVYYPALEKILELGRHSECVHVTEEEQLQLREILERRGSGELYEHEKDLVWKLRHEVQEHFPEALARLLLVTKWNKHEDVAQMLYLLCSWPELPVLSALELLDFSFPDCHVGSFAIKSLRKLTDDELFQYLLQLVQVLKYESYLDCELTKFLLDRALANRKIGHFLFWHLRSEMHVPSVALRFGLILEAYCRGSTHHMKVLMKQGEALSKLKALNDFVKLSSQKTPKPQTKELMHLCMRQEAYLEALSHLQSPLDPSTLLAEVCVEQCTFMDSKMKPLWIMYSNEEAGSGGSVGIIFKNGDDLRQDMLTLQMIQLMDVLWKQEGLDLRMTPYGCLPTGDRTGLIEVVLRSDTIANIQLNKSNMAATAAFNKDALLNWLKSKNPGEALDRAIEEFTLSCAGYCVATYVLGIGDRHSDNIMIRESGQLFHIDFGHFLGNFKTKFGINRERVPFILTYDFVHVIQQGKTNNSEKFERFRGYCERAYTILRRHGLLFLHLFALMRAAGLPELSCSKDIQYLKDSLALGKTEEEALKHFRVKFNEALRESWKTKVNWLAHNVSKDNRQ
T1 sequence (P42336 with tags, fused parts or gaps limits assumed): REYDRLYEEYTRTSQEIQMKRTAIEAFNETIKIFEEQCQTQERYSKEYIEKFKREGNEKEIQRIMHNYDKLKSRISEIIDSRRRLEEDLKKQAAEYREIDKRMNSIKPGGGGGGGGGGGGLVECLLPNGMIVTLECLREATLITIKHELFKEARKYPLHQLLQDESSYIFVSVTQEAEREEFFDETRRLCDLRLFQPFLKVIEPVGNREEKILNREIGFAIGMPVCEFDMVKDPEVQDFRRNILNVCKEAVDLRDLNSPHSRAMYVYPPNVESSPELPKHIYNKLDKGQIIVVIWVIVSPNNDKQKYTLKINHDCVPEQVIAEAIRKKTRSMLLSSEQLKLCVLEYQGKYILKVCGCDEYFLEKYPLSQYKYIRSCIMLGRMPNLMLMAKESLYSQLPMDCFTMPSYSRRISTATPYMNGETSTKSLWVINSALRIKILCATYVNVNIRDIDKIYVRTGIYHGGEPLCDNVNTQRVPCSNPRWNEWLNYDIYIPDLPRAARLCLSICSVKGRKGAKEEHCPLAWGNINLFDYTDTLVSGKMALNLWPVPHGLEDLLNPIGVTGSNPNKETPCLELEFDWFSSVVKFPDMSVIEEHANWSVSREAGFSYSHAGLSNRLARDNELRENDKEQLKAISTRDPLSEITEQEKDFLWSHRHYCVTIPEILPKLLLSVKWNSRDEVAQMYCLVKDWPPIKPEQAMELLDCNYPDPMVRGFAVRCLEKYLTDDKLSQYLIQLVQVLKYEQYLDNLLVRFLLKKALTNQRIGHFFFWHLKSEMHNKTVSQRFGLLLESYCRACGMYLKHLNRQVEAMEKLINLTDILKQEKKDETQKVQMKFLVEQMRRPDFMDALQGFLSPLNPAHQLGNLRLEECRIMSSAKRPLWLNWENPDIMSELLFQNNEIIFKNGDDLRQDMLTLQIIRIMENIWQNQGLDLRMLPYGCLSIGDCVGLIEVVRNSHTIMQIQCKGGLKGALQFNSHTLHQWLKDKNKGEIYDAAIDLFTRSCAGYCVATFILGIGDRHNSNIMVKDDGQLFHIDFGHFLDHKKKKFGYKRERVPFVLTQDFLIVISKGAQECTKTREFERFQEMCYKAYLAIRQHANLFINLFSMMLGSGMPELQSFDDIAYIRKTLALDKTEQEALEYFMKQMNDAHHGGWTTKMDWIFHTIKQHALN

Turning to `COc1ccc(-c2ccc3ncc(-c4ccc(OC)c(OC)c4)n3n2)cc1OC` [Example 1, 3,6-Bis-(3,4-dimethoxy-phenyl)-imidazo[1,2-b]pyridazine], in test [1] (read-out: IC50 (μm) PI3K-alfa), the IC50 came to 3 nM.
On the same count and under the same terms, with `COc1ccc(-c2ccc3ncc(-c4ccc(S(C)(=O)=O)cc4)n3n2)cc1OC` [Example 5, 6-(3,4-Dimethoxy-phenyl)-3-(4-methanesulfonyl-phenyl)-imidazo[1,2-b]pyridazine] the figure was 1.64 nM; with `Nc1ncc(-c2ccc3ncc(-c4cnc(N)c(C(F)(F)F)c4)n3n2)cc1C(F)(F)F` [Example 6], 3 nM; with `NC(=O)c1ccc(-c2ccc3ncc(-c4ccc(C(N)=O)cc4)n3n2)cc1` [Example 7, 4-[3-(4-Carbamoylphenyl)-imidazo[1,2-b]pyridazin-6-yl]-benzamide], 14 nM.
For the compound `CCOC(=O)c1cc(-c2ccc3ncc(-c4ccc(OC)c(OC)c4)n3n2)ccc1OC` [Example 8, 5-[3-(3,4-Dimethoxy-phenyl)-imidazo[1,2-b]pyridazin-6-yl]-2-methoxy-benzoic acid ethyl ester], in test [1] (read-out: IC50 (μm) PI3K-alfa), the IC50 was 6 nM.
On the same count and under the same terms, with `COc1ccccc1-c1ccc2ncc(-c3ccc(C(N)=O)cc3)n2n1` [Example 9, 4-[6-(2-Methoxy-phenyl)-imidazo[1,2-b]pyridazin-3-yl]-benzamide] the figure was 854 nM; with `COc1cc(-c2ccc3ncc(-c4cnc(N)c(C(F)(F)F)c4)n3n2)ccc1OCCCNC(=O)OC(C)(C)C` [Example 10, (3-{4-[3-(6-Amino-5-trifluoromethyl-pyridin-3-yl)-imidazo[1,2-b]pyridazin-6-yl]-2-methoxy-phenoxy}-propyl)-carbamic acid tert-butyl ester], 118 nM.
Same read-out and setting: in the case of `NC(=O)c1ccc(-c2ccc3ncc(-c4cnc(N)c(C(F)(F)F)c4)n3n2)cc1` [Example 11, 4-[3-(6-Amino-5-trifluoromethyl-pyridin-3-yl)-imidazo[1,2-b]pyridazin-6-yl]-benzamide] it was 372 nM; in that of `COc1cc(-c2ccc3ncc(-c4cnc(N)c(C(F)(F)F)c4)n3n2)ccc1OCCCN` [Example 14, 5-{6-[4-(3-Amino-propoxy)-3-methoxy-phenyl]-imidazo[1,2-b]pyridazin-3-yl}-3-trifluoromethyl-pyridin-2-ylamine], 39 nM; in that of `COc1ccc(-c2cnc3ccc(-c4ccc(OCCO)c(C(C)=O)c4)nn23)cc1OC` [Example 16, 1-[5-[3-(3,4-Dimethoxy-phenyl)-imidazo[1,2-b]pyridazin-6-yl]-2-(2-hydroxy-ethoxy)-phenyl]-ethanone], 135 nM.
Turning to `COc1cc(-c2ccc3ncc(-c4ccc(C(N)=O)cc4)n3n2)ccc1OCCCN` [Example 17, 4-{6-[4-(3-Amino-propoxy)-3-methoxy-phenyl]-imidazo[1,2-b]pyridazin-3-yl}-benzamide], the IC50 in test [1] (read-out: IC50 (μm) PI3K-alfa) is 53 nM.
`CS(=O)(=O)c1ccc(-c2cnc3ccc(-c4cnc(N)c(C(F)(F)F)c4)nn23)cc1` [Example 18, 5-[3-(4-Methanesulfonyl-phenyl)-imidazo[1,2-b]pyridazin-6-yl]-3-trifluoro-methyl-pyridin-2-ylamine]: the IC50 in test [1] (read-out: IC50 (μm) PI3K-alfa) was 9.5 nM.
Same read-out and setting: in the case of `COc1ccc(-c2ccc3ncc(-c4ccc(-c5ccoc5)cc4)n3n2)cc1OC` [Example 19, 6-(3,4-Dimethoxy-phenyl)-3-(4-furan-3-yl-phenyl)-imidazo[1,2-b]pyridazine] it was 120 nM.
Still for that read-out and setting: with `COc1ccc(-c2ccc3ncc(-c4ccc(-c5ccc[nH]5)cc4)n3n2)cc1OC` [Example 20, 6-(3,4-Dimethoxy-phenyl)-3-[4-(1H-pyrrol-2-yl)-phenyl]-imidazo[1,2-b]pyridazine] the figure was 122 nM; with `COc1cc(-c2cnc3ccc(-c4ccc(C(N)=O)cc4)nn23)ccc1OCCCNC(=O)OC(C)(C)C` [Example 21, (3-{4-[6-(4-Carbamoyl-phenyl)-imidazo[1,2-b]pyridazin-3-yl]-2-methoxy-phenoxy}-propyl)-carbamic acid tert-butyl ester], 292 nM.
On the same count and under the same terms, in the case of `Nc1ncc(-c2ccc3ncc(-c4ccc(F)nc4)n3n2)cc1C(F)(F)F` [Example 27, 5-[3-(6-Fluoro-pyridin-3-yl)-imidazo[1,2-b]pyridazin-6-yl]-3-trifluoromethyl-pyridin-2-ylamine] it was 1.4 nM; in that of `Nc1ncc(-c2ccc3ncc(-c4ccc(Nc5nc(-c6ccccc6)cs5)nc4)n3n2)cc1C(F)(F)F` [Example 28, 5-{3-[6-(4-Phenyl-thiazol-2-ylamino)-pyridin-3-yl]-imidazo[1,2-b]pyridazin-6-yl}-3-trifluoromethyl-pyridin-2-ylamine], 12 nM; in that of `CC(C)N1CCC(Oc2ccc(-c3cnc4ccc(-c5cnc(N)c(C(F)(F)F)c5)nn34)cn2)CC1` [Example 29, 5-{3-[6-(1-Isopropyl-piperidin-4-yloxy)-pyridin-3-yl]-imidazo[1,2-b]pyridazin-6-yl}-3-trifluoromethyl-pyridin-2-ylamine], 7 nM.
Turning to `Nc1ncc(-c2ccc3ncc(-c4ccc(NCc5ccccc5)nc4)n3n2)cc1C(F)(F)F` [Example 30, 5-[3-(6-Benzylamino-pyridin-3-yl)-imidazo[1,2-b]pyridazin-6-yl]-3-trifluoro-methyl-pyridin-2-ylamine], in test [1] (read-out: IC50 (μm) PI3K-alfa), the IC50 was 2.3 nM.
For the compound `Nc1ncc(-c2ccc3ncc(-c4ccc(N5CCOCC5)nc4)n3n2)cc1C(F)(F)F` [Example 31, 5-[3-(6-Morpholin-4-yl-pyridin-3-yl)-imidazo[1,2-b]pyridazin-6-yl]-3-trifluoromethyl-pyridin-2-ylamine], in test [1] (read-out: IC50 (μm) PI3K-alfa), the IC50 is 4.5 nM.
On to `Nc1ncc(-c2ccc3ncc(-c4ccc(O)nc4)n3n2)cc1C(F)(F)F` [Example 32, 5-[6-(6-Amino-5-trifluoromethyl-pyridin-3-yl)-imidazo[1,2-b]pyridazin-3-yl]-pyridin-2-ol], for which the IC50 in test [1] (read-out: IC50 (μm) PI3K-alfa) amounted to 4.9 nM.
`CCS(=O)(=O)c1ccc(-c2cnc3ccc(-c4cnc(N)c(C(F)(F)F)c4)nn23)cc1` [Example 33, 5-[3-(4-Ethanesulfonyl-phenyl)-imidazo[1,2-b]pyridazin-6-yl]-3-trifluoro-methyl-pyridin-2-ylamine]: the IC50 in test [1] (setting [5]) is 63 nM; in test [2] it was 103 nM; in test [3] it was 240 nM; in test [4], 1220 nM.
Turning to `CC(C)(C)OC(=O)NCCCOc1ccc(-c2ccc3ncc(-c4cnc(N)c(C(F)(F)F)c4)n3n2)cc1OC(F)(F)F` [Example 55], the IC50 in test [1] (setting [5]) is 6120 nM; in test [2] it was greater than 9100 nM; in test [3], greater than 9100 nM.
As to `Nc1ncc(-c2cnc3ccc(-c4cnc(N)c(C(F)(F)F)c4)nn23)cn1` [Example 79, 5-[6-(6-Amino-5-trifluoro-methyl-pyridin-3-yl)-imidazo [1,2-b]pyridazin-3-yl]-pyrimidin-2-ylamine], the IC50 was found to be 15 nM in test [1] (setting [5]), 9 nM in test [2] and 4 nM in test [3].
